Assay results: patent publication US6288089A, “Use of kinase inhibitors for treating neurodegenerative diseases” (priority 1999, dated 2001)
“Also recorded” adds a separate entry of the source.

Assays:
[1] = system: transplanted embryonic rat ventral mesencephalic dopamine neurons; details: tissue preincubated 2 h with 10 μM; six weeks after transplantation
Protocol: Following the incubation, the tissue was immediately transplanted into the denervated rat striatum. Six weeks after transplantation, TH+ cells within the striatum were visualized following sacrifice of the animals, and cryotome sectioning and immunostaining for tyrosine hydroxylase (TH) using a polyclonal anti-rat TH primary antibody.
For the transplantation, one-half embryonic day 15 (E15) rat ventral mesencephalon was extruded into a strand using a 0.2 mm in diameter glass cannula made by heating a glass luer adaptor (Kimble-Kontes, Cat# 663500-0444). […] Following incubation, the tissue was immediately transplanted into the denervated rat striatum. The tissue strand was drawn up into a 24 g sterile stainless steel cannula attached to a microliter syringe and stereotaxically transplanted at the following coordinates (AP 0.0 mm form bregma, LAT3.0 mm form the midline, VD-3.5 to -7.5 mm below the dura) in 4.0 μl over 4 min.
Visualization of TH+ cells: Six weeks after transplantation, all animals were sacrificed, and their brains perfused with heparinized-saline followed by 4% paraformaldehyde. […] All TH-immunoreactive neurons were counted in every third section under a microscope. Abercrombie's correction was used to estimate the total number of TH+ neurons surviving in each transplant.

[2] = system: TH+ dopamine neurons of E15 rat ventral mesencephalic cultures; details: 10 μM; 18 h serum-free
Description: To make this determination, select rat embryonic mesencephalic cultures were double stained for both the TH dopaminergic cell marker and for nuclear characteristics indicative of apoptosis. […] Following 18 hrs under these conditions, cultures were immunostained using anti-rat TH primary antibody followed by a fluorescent (FITC-conjugated) secondary antibody. Subsequently, cells were stained with a fluorescent Hoechst 33258 DNA dye. Only those cells containing nuclear chromatin condensations (pyknotic nuclei) were scored as apoptotic. Cells containing intact nuclei -were counted as healthy. In the entire experiment, a total of 5066 TH-immunoreactive neurons were examined for nuclear chromatin condensation. Four sample groups were tested:
In this Example, experiments to study tyrosine hydroxylase-positive apoptotic cells were conducted. E15 rat ventral mesencephalic cultures were grown in F12 medium containing 5% human placental serum for 24 hrs. […] Next, cultures were washed with PBS and fixed for 2 min in 1% paraformaldehyde followed by further fixation in 70% ethanol in glycine buffer at -20° C. for 10 min. […] Cells containing intact nuclei were counted as healthy. […] In the entire experiment, total of 5066 TH-immunoreactive neurons were examined for the nuclear chromatin condensation under a fluorescence microscope.

[3] = system: TH+ dopamine neurons of E15 rat mesencephalic primary cultures; format: cell-based; details: 20 h serum withdrawal

Row | Compound | number of surviving dopamine neurons (TH+ cells) compared to sham-pretreated transplants [1] | anti-apoptotic effect in dopamine neurons after serum withdrawal [2] | surviving TH+ neurons/cm^2 ([3]; 1 μM inhibitor, serum control […]±30, no serum 283±32) [TH+ neurons/cm^2] | concentration at which the survival effect on TH+ neurons reached its maximum ([3]; 0.1-10 μM tested) [µM]
1 | C[S+]([O-])c1ccc(-c2nc(-c3ccc(F)cc3)c(-c3ccncc3)[nH]2)cc1 (stereo not shown) [SB 203580] | intermediate level | significant (p<0.001), although less dramatic than that of PD169316; also recorded: significant (p<0.001) although less dramatic than that of PD169316 |  | 
2 | Oc1ccc(-c2nc(-c3ccc(F)cc3)c(-c3ccncc3)[nH]2)cc1 [SB 202190] |  |  | 537±37 | 1
